Entries after “also recorded” stand apart in the source; their conditions may differ.
Test system: astrocytes of the hippocampus (stratum radiatum), TRPA1 channel
Assay: Acute application on acute hippocampal slices: astrocyte calcium imaging
Format: cell-based, mouse
Details: 40 μM, APP/PS1-21 mice 1-month old
Experimental: Coronal sections of the hippocampus (thickness 300 μm) were prepared from APP/PS1-21 transgenic mice (1 month and 3 months old) or from WT mice from the same litter. The mice were sacrificed by decerebration and decapitation. The brain was quickly removed and sectioned in ice-cold ACSF containing (in mM) : 2.5 KCl, 7 MgCl2, 0.5 CaCl2, 1.2 NaHPO4, 25 NaHCO3, 11D-glucose and 234 sucrose bubbled with 95% of O2 and 5% of CO2 with a VT1200S vibratome (Leica, Germany). The sections containing the hippocampus were placed in ACSF containing (in mM) : 126 NaCl, 2.5 KCl, 1.2 MgCl2, 2.5 CaCl2, 1.2 NaH2PO4 bubbled with 95% of O2 and 5% of CO2 and supplemented with 1 mM of sodium pyruvate at room temperature for a recovery period.
300 μm coronal sections were transferred to a chamber allowing constant perfusion with ACSF at room temperature, bubbling with 95% of O2 and 5% of CO2 on the upright microscope tray (Eclipse E600 FN, Nikon, France) equipped with a 60× (NA 1.0) water immersion objective and infrared interference contrast optical systems with a CCD camera (Optronis VX45, Germany). […] The signals were amplified by Axopatch 200B, sampled by a Digidata 1440A interface and recorded by the pClamp8 software (Molecular Devices, USA). […] The input resistance was calculated by measuring the current in response to a 10 mV pulse of 80 ms duration near the end of the voltage command.

`CC(C)c1ccc(NC(=O)Cn2cnc3c2c(=O)n(C)c(=O)n3C)cc1` [HC030031, 2-(1,3-Dimethyl-2,6-dioxo-1,2,3,6-tetrahydro-7H-purin-7-yl)-N-(4-isopropylphenyl)acetamide] was tested, and the astrocyte calcium hyperactivity was “fully restored; also recorded: inhibited”.

From patent US20230372350A1, “ASTROCYTIC TRPA1 CHANNEL INHIBITION AS A NOVEL NEUROPROTECTIVE THERAPEUTIC TARGET IN THE PRODROMAL PHASES OF ALZHEIMER'S DISEASE” (priority 2020, published 2023)
